In one assay the target is T1, human Nav1.8 (Homo sapiens, UniProt Q9Y5Y9).
T1 construct: expressed in transfected cells; host or cells: HEK293 (HEK293-Nav1.8)
T1 sequence (Q9Y5Y9 whole entry): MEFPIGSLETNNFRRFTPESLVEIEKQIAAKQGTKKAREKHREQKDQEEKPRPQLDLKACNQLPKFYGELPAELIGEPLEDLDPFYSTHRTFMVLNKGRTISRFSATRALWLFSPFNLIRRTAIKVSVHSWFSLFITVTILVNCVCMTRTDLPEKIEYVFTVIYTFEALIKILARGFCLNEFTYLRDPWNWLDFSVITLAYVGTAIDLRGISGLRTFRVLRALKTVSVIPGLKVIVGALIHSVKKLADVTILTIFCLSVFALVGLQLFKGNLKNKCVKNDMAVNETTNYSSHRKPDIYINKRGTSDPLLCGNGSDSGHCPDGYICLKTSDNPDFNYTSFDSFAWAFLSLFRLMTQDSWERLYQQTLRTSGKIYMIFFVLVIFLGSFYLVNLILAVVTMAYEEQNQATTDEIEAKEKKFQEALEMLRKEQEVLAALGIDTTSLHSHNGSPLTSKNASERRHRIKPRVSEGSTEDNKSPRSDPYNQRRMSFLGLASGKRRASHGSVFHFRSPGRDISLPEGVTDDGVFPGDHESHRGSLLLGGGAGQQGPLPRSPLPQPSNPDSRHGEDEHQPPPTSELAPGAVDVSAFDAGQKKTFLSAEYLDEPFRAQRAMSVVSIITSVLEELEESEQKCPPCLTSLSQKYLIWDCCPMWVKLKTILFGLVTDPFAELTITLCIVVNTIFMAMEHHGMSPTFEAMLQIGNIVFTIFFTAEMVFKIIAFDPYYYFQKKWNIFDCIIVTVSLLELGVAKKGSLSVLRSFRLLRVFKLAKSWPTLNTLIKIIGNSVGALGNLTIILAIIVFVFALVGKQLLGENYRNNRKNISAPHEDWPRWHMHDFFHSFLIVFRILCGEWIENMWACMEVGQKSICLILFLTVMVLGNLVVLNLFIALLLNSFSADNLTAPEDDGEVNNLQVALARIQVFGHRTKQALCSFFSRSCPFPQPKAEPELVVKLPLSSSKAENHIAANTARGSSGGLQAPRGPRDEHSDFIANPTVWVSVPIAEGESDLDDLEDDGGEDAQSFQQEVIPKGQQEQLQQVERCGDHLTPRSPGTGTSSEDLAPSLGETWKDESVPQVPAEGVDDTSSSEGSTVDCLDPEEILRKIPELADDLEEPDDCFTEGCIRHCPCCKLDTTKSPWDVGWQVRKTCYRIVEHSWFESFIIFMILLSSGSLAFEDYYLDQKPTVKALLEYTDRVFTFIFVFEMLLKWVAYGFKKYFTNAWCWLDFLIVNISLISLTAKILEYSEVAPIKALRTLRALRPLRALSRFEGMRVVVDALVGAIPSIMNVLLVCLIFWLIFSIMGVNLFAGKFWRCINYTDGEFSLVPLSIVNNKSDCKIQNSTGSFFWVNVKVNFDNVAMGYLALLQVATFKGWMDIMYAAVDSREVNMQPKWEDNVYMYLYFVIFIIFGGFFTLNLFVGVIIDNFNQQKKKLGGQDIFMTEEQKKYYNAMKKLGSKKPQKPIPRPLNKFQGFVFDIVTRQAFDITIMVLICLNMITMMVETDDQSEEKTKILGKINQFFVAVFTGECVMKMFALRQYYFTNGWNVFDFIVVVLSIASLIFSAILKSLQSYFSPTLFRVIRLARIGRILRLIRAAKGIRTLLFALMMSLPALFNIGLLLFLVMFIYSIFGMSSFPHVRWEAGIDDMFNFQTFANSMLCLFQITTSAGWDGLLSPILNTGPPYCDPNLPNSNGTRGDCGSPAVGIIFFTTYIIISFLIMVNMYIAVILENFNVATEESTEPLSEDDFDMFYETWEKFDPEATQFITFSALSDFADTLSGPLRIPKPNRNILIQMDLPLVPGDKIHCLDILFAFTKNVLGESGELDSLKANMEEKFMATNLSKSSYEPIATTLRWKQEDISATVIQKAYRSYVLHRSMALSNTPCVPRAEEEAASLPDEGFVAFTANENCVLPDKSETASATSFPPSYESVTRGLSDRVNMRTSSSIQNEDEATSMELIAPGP
T1 sequence (Q07699 19-218 partner): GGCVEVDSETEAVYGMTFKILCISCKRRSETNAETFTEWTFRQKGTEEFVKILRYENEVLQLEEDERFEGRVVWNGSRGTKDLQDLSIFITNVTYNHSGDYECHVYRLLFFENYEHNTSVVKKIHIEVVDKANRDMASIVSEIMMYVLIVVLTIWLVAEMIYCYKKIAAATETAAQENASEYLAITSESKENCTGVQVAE
Nature of the assay: Nav1.8 sodium channels assay, QPatch 48 HTX electrophysiology in HEK293-Nav1.8 cells. The assay is classed as cell-based. Conditions: Table 1; HEK293-Nav1.8, QPatch 48 HTX, half inactivation state voltage protocol (V1/2); single run or average of two or more runs; read-out: Nav1.8 pIC50 (converted). An outline of the steps: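 HEK293 cells co-expressing human Nav1.8, Navβ1 and TREK1 were voltage-clamped on QPatch 48 HTX. The V1/2 protocol ran at 0.07 Hz: hold −100 mV, 20 ms to 0 mV, 8 s at −46 mV, 20 ms at −100 mV, then 20 ms at 0 mV (P2). P2 current was fitted over 6-8 concentrations for IC50, with vehicle wells used to correct for run-down.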
For orientation: The patch-clamp technique gives a direct electrical read-out from membranes.
For `Cc1cc(F)ccc1N1CN(c2ccc(=O)[nH]c2C)C(=O)c2cc(C(F)(F)F)ccc21` [drawing 305, 1-(4-fluoro-2-methylphenyl)-3-(2-methyl-6-oxo-1,6-dihydropyridine-3-yl)-6-(trifluoromethyl)-2,3-dihydroquinazolin-4(1H)-one], the IC50 is 12.6 nM. As to `Cc1cc(F)ccc1N1CN(c2cnc(=O)[nH]c2)C(=O)c2ccc(C(F)(F)F)cc21` [drawing 306, 1-(4-fluoro-2-methylphenyl)-3-(2-oxo-1,2-dihydropyrimidin-5-yl)-7-(trifluoromethyl)-2,3-dihydroquinazolin-4(1H)-one], the IC50 was 501 nM.

As to `Cc1cc(F)ccc1N1CN(c2ccc(=O)[nH]n2)C(=O)c2ccc(C(F)(F)F)cc21` [drawing 307, 1-(4-fluoro-2-methylphenyl)-3-(6-oxo-1,6-dihydropyridazin-3-yl)-7-(trifluoromethyl)-2,3-dihydroquinazolin-4(1H)-one], the IC50 is 2000 nM. As to `Cc1cc(F)ccc1N1CN(c2ncc(=O)[nH]c2C)C(=O)c2ccc(C(F)(F)F)cc21` [drawing 308, 1-(4-fluoro-2-methylphenyl)-3-(3-methyl-5-oxo-4,5-dihydropyrazin-2-yl)-7-(trifluoromethyl)-2,3-dihydroquinazolin-4(1H)-one], the IC50 was 398 nM.

Still in this assay, the particulars now being: Table 2; HEK293-Nav1.8, QPatch 48 HTX, half inactivation state voltage protocol (V1/2); single run or average of two or more runs; read-out: Nav1.8 pIC50 (converted).
For the compound `Cc1cc(F)ccc1N1CN(c2cc[nH]c(=O)c2)C(=O)c2ccc(C(F)(F)F)cc21` [drawing 309, 1-(4-fluoro-2-methylphenyl)-3-(2-oxo-1,2-dihydropyridin-4-yl)-7-(trifluoromethyl)-2,3-dihydroquinazolin-4(1H)-one], the IC50 was 398 nM. As to `Cc1cc(N2CN(c3ccc(F)cc3C)c3cc(C(F)(F)F)ccc3C2=O)cc(=O)[nH]1` [drawing 310, 1-(4-fluoro-2-methylphenyl)-3-(6-methyl-2-oxo-1,2-dihydropyridin-4-yl)-7-(trifluoromethyl)-2,3-dihydroquinazolin-4(1H)-one], the IC50 is 2510 nM. Turning to `Cc1c[nH]c(=O)cc1N1CN(c2ccc(F)cc2C)c2cc(C(F)(F)F)ccc2C1=O` [drawing 311, 1-(4-fluoro-2-methylphenyl)-3-(5-methyl-2-oxo-1,2-dihydropyridin-4-yl)-7-(trifluoromethyl)-2,3-dihydroquinazolin-4(1H)-one], the IC50 was 1000 nM.

Take `Cc1cc(F)ccc1N1CN(c2cc[nH]c(=O)c2C)C(=O)c2ccc(C(F)(F)F)cc21` [drawing 312, 1-(4-fluoro-2-methylphenyl)-3-(3-methyl-2-oxo-1,2-dihydropyridin-4-yl)-7-(trifluoromethyl)-2,3-dihydroquinazolin-4(1H)-one]: the IC50 was 1260 nM.

Source of the values: patent US20230103791A1 (GLAXOSMITHKLINE INTELLECTUAL PROPERTY DEVELOPMENT LIMITED, priority 2019, published 2023).
